Measured values as given in PMC7714403 (JCI Insight, 2020).

Columns and labels:
ULK1 = molecular target: T1, ULK1 (Homo sapiens, UniProt O75385); experiment: KiNativ, OCI cells live cell; type: cell-based
T1 sequence (O75385 1-1050): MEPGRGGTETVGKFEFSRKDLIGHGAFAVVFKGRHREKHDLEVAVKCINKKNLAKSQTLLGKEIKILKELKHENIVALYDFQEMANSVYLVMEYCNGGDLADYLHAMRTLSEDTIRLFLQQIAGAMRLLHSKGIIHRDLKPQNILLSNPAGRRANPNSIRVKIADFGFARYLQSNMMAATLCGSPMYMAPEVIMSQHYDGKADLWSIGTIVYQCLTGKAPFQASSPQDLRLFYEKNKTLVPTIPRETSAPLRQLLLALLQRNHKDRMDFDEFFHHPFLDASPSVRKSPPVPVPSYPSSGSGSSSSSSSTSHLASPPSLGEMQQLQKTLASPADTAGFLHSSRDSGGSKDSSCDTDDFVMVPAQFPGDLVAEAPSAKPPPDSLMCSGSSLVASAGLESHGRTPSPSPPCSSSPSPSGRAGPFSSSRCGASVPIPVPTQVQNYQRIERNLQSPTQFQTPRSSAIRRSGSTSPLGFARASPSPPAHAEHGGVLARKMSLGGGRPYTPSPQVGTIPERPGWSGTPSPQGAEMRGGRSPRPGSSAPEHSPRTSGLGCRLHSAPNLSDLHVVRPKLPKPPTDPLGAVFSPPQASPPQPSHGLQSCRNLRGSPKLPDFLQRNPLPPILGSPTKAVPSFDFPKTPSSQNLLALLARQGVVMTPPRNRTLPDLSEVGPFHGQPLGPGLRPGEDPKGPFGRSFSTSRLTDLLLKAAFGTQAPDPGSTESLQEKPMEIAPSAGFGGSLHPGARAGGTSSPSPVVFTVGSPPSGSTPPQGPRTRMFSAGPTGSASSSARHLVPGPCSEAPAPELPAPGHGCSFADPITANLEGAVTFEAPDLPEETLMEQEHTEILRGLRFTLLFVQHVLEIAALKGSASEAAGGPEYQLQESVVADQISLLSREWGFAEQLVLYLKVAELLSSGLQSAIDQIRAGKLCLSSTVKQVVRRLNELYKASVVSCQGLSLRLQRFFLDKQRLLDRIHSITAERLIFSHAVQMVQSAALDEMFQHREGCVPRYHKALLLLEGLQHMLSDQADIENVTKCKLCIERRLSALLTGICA

PI4KA = PI4KA (Homo sapiens, UniProt P42356); experiment: KiNativ, OCI cells live cell; type: cell-based; conditions: 2 h, labeling site ATP, peptide […]
dermal fibroblasts = experiment: MTT viability assay, normal cells; type: cell-based, human; conditions: 2 donors, 72 h
Method: Cell viability of primary samples
HS5-GFP human bone marrow stromal cells were plated and cultured for 72 hours to near confluence.
MOLM13 cells were then seeded onto HS5-GFP cells to establish a co-culture. Twenty-four hours later, cells were treated with increasing concentrations of drug for an additional 72 hours. MOLM13 and HS5-GFP cells were then separated and MTT assay s were performed for cell viability assessment of each cell population.
For murine or human primary AML cells, 100,000 cells/well were plated in a 96-well plate and treated with increasing concentrations of drug. Cell viability, via trypan blue, was measured every 24 hours. If the viability fell below 50% or at 72 hours of treatment, whichever came earlier, cell viability of each plate was measured via CellTiter-Glo. Primary human AML cells were obtained from the OSUCCC Leukemia Tissue Bank Shared […]
For primary human fibroblasts, cells were plated at 10,000 cells/well in a 96-well plate and cultured for 24 hours. After 24 hours, cells were treated with drug for 72 hours. A MTT assay was performed to assess cell […]
Primary AML samples were analyzed by targeted gene sequencing of 80 genes, as previously described (1). Samples were pooled and analyzed on a MiSeq system using the Illuminia MiSeq Reagent Kit v3. Ill umina Isis Banded Smith Waterman aligner and hg19 genome were used to align the sequences. […]

FLT3 D835Y [1] = molecular target: T2, FLT3 D835Y (Homo sapiens, UniProt P36888, D835Y); experiment: KdELECT binding assay
T2 construct: purchased Eurofins DiscoverX

ILK = molecular target: T3, ILK (Homo sapiens, UniProt Q13418); experiment: KiNativ, OCI cells live cell; type: cell-based; conditions: 2 h
T3 sequence (Q13418 1-452): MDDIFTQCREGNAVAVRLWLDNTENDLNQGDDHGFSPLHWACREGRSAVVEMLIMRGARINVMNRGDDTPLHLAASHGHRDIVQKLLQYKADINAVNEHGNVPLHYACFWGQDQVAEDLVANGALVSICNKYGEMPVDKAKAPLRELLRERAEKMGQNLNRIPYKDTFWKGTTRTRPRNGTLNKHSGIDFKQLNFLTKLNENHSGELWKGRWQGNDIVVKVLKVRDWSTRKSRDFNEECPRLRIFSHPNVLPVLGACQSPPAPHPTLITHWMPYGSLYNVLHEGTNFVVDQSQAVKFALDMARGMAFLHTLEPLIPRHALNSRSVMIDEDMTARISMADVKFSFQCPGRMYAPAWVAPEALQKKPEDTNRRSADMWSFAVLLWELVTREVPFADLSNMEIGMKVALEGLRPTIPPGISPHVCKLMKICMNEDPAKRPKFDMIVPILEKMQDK

NDR1, NDR2 = experiment: KiNativ, OCI cells live cell; type: cell-based, human; conditions: labeling site Activation Loop, peptide LSDFGLCTGLKK
MAP3K6 = MAP3K6 (Homo sapiens, UniProt O95382); experiment: KiNativ, OCI cells live cell; type: cell-based; conditions: 2 h, labeling site Lys2, peptide […]
FLT3 D835Y [2] = molecular target: T2, FLT3 D835Y; experiment: Kinase assay by Reaction Biology; type: biochemical; conditions: enzymatic kinase assay
OCI-AML3 cells = experiment: Viability assay; type: cell-based; conditions: Homo sapiens, OCI-AML-3, read-out: IC50 viability
Method: Drug treatments were carried out for 72 hours. Details are provided in the Supplemental Methods.

ATR = ATR (Homo sapiens, UniProt Q13535); experiment: KiNativ, OCI cells live cell; type: cell-based; conditions: 2 h, labeling site ATP, peptide […]
ATR, sequence (Q13535 whole entry): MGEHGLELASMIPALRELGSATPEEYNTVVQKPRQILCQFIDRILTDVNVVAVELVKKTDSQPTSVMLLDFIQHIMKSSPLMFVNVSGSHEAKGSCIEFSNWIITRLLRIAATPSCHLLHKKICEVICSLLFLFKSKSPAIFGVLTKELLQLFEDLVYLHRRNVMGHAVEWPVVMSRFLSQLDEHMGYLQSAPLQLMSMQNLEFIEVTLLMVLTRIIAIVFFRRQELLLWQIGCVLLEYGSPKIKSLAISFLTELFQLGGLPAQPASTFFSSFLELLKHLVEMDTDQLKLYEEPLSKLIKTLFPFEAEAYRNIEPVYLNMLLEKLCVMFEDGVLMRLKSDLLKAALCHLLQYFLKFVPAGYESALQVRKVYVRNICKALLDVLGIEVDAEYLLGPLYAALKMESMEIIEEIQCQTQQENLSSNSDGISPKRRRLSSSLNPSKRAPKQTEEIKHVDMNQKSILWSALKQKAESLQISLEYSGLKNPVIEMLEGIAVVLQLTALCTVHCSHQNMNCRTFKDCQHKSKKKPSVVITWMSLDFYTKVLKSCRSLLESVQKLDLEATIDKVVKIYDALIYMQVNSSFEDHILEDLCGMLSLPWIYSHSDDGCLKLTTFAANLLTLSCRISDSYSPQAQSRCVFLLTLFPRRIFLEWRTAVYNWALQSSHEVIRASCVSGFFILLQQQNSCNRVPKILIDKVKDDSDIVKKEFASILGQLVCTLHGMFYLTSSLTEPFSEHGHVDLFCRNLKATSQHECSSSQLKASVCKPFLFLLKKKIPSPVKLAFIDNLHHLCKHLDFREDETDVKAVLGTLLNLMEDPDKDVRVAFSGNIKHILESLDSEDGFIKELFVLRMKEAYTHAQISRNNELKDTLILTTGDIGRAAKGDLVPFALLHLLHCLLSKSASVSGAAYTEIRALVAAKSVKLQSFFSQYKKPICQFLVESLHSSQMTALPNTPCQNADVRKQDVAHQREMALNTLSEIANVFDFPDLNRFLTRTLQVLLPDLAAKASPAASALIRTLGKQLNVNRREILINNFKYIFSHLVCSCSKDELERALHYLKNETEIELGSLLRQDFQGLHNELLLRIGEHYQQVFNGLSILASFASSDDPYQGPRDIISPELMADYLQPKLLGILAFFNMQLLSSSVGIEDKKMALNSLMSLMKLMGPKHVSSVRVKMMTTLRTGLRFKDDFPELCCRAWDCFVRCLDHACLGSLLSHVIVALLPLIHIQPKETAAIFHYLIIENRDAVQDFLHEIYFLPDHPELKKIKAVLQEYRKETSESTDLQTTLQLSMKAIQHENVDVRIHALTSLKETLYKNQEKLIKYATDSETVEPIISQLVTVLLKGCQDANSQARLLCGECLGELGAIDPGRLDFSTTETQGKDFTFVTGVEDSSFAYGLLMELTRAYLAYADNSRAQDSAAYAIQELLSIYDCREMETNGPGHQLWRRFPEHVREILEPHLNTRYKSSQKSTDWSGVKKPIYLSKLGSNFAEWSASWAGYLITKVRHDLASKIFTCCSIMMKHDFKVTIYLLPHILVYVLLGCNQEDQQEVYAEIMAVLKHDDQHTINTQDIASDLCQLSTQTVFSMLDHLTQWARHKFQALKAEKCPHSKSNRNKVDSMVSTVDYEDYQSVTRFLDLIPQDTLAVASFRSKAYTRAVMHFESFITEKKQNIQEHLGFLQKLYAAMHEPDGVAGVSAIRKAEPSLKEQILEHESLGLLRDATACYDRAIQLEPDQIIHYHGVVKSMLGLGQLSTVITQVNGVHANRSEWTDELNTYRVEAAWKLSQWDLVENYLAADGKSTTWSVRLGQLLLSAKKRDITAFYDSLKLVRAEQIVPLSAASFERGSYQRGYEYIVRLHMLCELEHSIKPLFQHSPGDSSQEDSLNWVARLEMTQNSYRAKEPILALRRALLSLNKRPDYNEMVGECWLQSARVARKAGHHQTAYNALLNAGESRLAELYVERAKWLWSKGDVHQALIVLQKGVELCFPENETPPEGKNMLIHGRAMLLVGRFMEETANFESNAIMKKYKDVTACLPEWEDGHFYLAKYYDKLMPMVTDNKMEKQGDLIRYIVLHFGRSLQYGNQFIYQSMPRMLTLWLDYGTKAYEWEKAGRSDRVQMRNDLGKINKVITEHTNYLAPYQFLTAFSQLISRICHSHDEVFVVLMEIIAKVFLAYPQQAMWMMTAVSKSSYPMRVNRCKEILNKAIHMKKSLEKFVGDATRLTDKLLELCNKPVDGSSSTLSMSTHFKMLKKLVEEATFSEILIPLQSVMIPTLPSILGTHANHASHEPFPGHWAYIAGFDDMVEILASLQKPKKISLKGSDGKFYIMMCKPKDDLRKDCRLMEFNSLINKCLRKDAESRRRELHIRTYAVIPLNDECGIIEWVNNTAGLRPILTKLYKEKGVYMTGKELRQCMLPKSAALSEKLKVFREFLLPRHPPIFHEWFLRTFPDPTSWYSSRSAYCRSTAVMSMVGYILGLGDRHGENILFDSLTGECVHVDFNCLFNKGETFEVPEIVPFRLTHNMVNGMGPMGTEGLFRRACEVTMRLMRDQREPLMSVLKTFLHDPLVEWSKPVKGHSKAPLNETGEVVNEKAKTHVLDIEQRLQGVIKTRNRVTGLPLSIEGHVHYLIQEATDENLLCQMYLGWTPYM
ATR, sequence (Q8WXE1 whole entry partner): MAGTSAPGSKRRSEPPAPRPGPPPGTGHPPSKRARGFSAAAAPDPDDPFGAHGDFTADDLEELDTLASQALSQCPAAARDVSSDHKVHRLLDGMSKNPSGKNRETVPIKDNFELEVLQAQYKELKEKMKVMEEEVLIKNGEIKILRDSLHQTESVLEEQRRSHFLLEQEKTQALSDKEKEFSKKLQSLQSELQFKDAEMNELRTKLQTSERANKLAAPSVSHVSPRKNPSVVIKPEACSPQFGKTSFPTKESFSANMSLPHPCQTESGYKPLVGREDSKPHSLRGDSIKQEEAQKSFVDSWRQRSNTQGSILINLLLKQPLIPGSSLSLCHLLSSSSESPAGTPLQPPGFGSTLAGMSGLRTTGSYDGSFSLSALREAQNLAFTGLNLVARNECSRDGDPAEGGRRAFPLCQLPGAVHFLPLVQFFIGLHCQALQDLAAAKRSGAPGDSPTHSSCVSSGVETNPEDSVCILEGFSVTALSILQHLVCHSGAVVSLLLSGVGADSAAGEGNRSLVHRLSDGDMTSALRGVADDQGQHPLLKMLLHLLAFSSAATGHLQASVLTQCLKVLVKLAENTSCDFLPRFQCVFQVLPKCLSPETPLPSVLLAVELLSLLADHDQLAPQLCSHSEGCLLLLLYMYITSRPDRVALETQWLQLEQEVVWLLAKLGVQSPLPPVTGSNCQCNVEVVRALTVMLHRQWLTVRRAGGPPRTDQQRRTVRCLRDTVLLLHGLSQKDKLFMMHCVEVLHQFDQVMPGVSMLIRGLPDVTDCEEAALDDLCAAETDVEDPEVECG

MAP3K6, sequence (O95382 whole entry): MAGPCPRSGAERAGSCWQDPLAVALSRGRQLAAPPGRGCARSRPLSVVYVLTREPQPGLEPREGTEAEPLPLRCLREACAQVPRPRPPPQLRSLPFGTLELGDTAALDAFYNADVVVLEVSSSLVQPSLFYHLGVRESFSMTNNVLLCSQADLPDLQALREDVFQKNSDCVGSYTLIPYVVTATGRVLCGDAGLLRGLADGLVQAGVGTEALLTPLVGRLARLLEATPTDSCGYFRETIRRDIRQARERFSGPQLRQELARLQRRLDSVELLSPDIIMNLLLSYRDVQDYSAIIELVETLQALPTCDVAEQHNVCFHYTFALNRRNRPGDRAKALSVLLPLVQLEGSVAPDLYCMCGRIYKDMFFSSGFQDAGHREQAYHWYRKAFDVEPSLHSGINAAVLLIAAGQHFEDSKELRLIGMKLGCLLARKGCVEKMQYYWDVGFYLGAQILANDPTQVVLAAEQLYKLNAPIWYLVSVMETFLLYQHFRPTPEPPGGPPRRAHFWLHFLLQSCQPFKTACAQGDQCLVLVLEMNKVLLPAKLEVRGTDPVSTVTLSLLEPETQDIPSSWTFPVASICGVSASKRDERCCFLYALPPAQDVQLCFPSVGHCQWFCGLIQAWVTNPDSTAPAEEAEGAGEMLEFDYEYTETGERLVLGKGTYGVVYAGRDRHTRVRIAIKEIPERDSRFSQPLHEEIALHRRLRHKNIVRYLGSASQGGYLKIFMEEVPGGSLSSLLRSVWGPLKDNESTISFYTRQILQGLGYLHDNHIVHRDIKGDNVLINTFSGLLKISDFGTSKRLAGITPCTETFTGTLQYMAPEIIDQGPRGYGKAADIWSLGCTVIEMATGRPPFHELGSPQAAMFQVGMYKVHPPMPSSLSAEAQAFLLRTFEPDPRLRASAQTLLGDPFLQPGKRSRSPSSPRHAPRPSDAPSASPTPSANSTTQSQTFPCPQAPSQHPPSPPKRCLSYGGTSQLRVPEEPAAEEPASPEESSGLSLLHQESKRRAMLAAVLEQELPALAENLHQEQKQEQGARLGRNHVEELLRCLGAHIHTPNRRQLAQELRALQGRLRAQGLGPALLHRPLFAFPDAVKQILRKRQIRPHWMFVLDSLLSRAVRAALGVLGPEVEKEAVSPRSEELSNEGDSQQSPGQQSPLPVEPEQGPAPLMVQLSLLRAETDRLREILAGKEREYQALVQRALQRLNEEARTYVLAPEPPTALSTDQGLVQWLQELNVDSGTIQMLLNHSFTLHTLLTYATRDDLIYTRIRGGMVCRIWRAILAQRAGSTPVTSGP

`CN1CCN(Cc2ccc(Nc3ncc(Cl)c(Nc4ccccc4S(=O)(=O)N(C)C)n3)cc2)CC1` [TP-0903] was tested, and the Inhibition (ULK1; labeling site Lys1, peptide HDLEVAVKCINKK) was 23.3%, the Inhibition (ULK1; labeling site Lys2, peptide DLKPQNILLSNPAGR) was 59.5% and the inhibition at 0.1 µM (PI4KA) was -14.6%. For the same compound, the “Concentrations inhibiting viability of fibroblasts” value (dermal fibroblasts) was ≥ 250 nM, the Kd (FLT3 D835Y [1]) was 1.4 nM and the inhibition at 0.1 µM (ILK; labeling site Lys1, peptide WQGNDIVVKVLK) was -21.7%. It also gave an inhibition at 0.1 µM (ILK; labeling site Protein Kinase Domain, peptide ISMADVKFSFQCPGR) of -42.5%, an Inhibition (NDR1, NDR2) of 18.3% and an inhibition at 0.1 µM (MAP3K6) of -13.5%. It also gave an IC50 (FLT3 D835Y [2]) of 0.12 nM, an IC50 (OCI-AML3 cells) of 37 nM and an inhibition at 0.1 µM (ATR) of 13%.
